pEC50, pIC50: −log10 of the molar value. Calls of active or inactive are those of the source. The calls are words filed in the database; no cut-off is given here.
How the values were obtained:
Type in all cases: functional, organism-based
[1] = system: Human immunodeficiency virus 1; assay: Antiviral activity against HIV1 Env-pseudovirus infected in mouse 3T3.T4.CCR5 cells after 2 days by luciferase assay; details: for pIC50: read-out: IC50
[2] = system: Human immunodeficiency virus 1; assay: Antiviral activity against HIV1 Env-pseudovirus infected in human Jurkat E6-1 cells after 2 days by luciferase assay; details: for pIC50: Human immunodeficiency virus 1, Jurkat, 48 h
[3] = system: Human immunodeficiency virus 1; assay: Antiviral activity against HIV1 MN infected in human C8166 cells; details: Human immunodeficiency virus 1, MN

COC1=C(C(=O)c2ccccc2)C(=O)[C@]2(CC=C(C)C)C[C@H](CC=C(C)C)C(C)(C)C1(CC=C(C)C)C2=O
IC50 ([1]; 3t3.t4.ccr5): Not Active

CC(C)=CC[C@H]1C[C@]2(CC=C(C)C)C(=O)[C@@](CC=C(C)C)(C(=O)C(C(=O)c3ccccc3)=C2O)C1(C)C (stereo in doubt; 1)
Activity [2]: Active

CC(C)=CC[C@H]1C[C@]2(CC=C(C)C)C(=O)[C@@](CC=C(C)C)(C(=O)C(C(=O)c3ccccc3)=C2O)C1(C)C (stereo in doubt; 1) [6-EPI-CLUSIANONE]
pEC50 [3]: 7.70 | pIC50 ([1]; Human immunodeficiency virus 1, 3T3.T4.CCR5, 48 h): 5.82

CC(C)=CC[C@H]1C[C@]2(CC=C(C)C)C(=O)[C@@](CC=C(C)C)(C(=O)C(C(=O)c3ccccc3)=C2O)C1(C)C (stereo in doubt; 2)
Activity [2]: Active

CC(C)=CC[C@H]1C[C@]2(CC=C(C)C)C(=O)[C@@](CC=C(C)C)(C(=O)C(C(=O)c3ccccc3)=C2O)C1(C)C (stereo in doubt; 2) [6-EPI-CLUSIANONE]
pIC50 ([1]; 3t3.t4.ccr5): 5.95

Cc1ccnc2c1NC(=O)c1cccnc1N2C1CC1 [NEVIRAPINE]
pIC50 [2]: 7.40

Cc1cn([C@H]2C[C@H](N=[N+]=[N-])[C@@H](CO)O2)c(=O)[nH]c1=O [ZIDOVUDINE]
pIC50 [2]: 6.92
